Literature values as cited in patent US12528823B2, “Inhibitors of aldose reductase” (Applied Therapeutics, Inc., priority 2019, dated 2026).

Key:
[1] = system: ischemic injury (cerebral infarction); conditions: normal mice; single oral dose either 30 mins before ischemia or 1 h 45 mins after ischemia
[2] = positive control; published/known value; octanol/pH 7.4 phosphate buffer

SMILES | reduction in infarct volume resulting from ischemic injury [1] | Log D [2]
NC(=O)[C@@H]1C[C@]2(NC(=O)NC2=O)c2cc(F)ccc2O1 [Fidarestat] | 16-25% | –
C[C@]12CC[C@H]3[C@@H](CCC4=CC(=O)CC[C@@]43C)[C@@H]1CC[C@@H]2O [Testosterone] | – | 3.0-3.4
